We go through 1 compound from US12661338B2, “Heterocyclic compounds as modulators of beta-catenin / TCF4 interaction” (AGENCY FOR SCIENCE, TECHNOLOGY AND RESEARCH, priority 2019, dated 2026).

Broadly, the EC50 is the concentration at which the effect is half-maximal. Lower therefore signals greater potency. As usually defined, the Kd is the free concentration of one partner at which half of the binding sites on the other are occupied at equilibrium, for simple one-to-one binding. The term IC50 denotes the concentration at which inhibition is half-maximal. A low value points to greater potency in that assay.

In one assay the test system is CRC1837. Kind of assay: Viability of primary patient-derived colorectal cancer cell line. The format is cell-based. The following applies: CRC1837, Liver Met.
In a further assay the test system is CRC1414. The description is as above. The format is cell-based.
A further assay concerns DLD-1 cells. Kind of assay: Dose response viability of CRC cells (CellTiter-Glo). The format is cell-based. The following applies: Homo sapiens, 24 hr. Here is the method:
(§1) HCT116, DLD-1, and SW480 cells were seeded as 5,000 cells in 100 μL growth medium per well in 96-well plates (Corning cat. #3903). The next day, 5-fold dilutions of the compounds in DMSO were added to the cells at a final concentration of 1% DMSO. After 24 hr incubation, the viability of the cells was determined with CellTiter-Glo luminescent cell viability reagent (Promega cat. #G7573) according to the manufacturer's protocol.
(§2) The average signal from DMSO treated wells was calculated for each plate, and the signal from each treatment well was normalized against the average DMSO signal from the respective plate. The normalized values were plotted against the concentrations tested using GraphPad Prism 5, and the EC50 values were determined through either three- or four-parameter nonlinear regression.
Background: Cellular ATP, detected with luciferase, serves as a proxy for viable cell number.

Assay [1] concerns HCT116 cells. The description is as above. The class given is cell-based. The following applies: Homo sapiens, HCT-116, 24 hr. The method, then:
as §1, §2

Another assay concerns CRC1846. The experiment in a line: Viability of primary patient-derived colorectal cancer cell line. The format is cell-based.
For a further assay, the system named is CRC2367. The description is as above. The class given is cell-based.
The target of assay [2] is T1, His-tagged human β-cat (134-668) (Homo sapiens, UniProt P35222).
T1 construct: His-tagged human β-cat (134-668); made in house; host or cells: E. coli BL21(DE3)
Kind of assay: SPR binding to β-cat. Here is the method: BL21(DE3) cells harboring pET-28 β-cat expression vector of His-tagged human β-cat (134-668) were cultured at 37° C. until OD600=0.6-0.8. The cells were then induced with 500 μM isopropyl-β-D-thiogalactopyranoside (IPTG) for 6-8 hr at 23° C. Cells were lysed by sonication in lysis buffer containing 20 mM Tris (pH 8.8), 250 mM NaCl, 2 mM DTT, 5% glycerol, 0.1% Triton X-100, and cOmplete protease inhibitor cocktail (EDTA free, Roche cat. #11873580001). The lysate was incubated with Ni-NTA agarose beads (Qiagen cat. #30210) at 4° C. for 1 hr, and the beads were then washed with lysis buffer containing 20 mM imidazole. Bound protein was eluted with buffer containing 20 mM Tris (pH 8.8), 250 mM NaCl, 0.5 mM tris(2-carboxyethyl)phosphine (TCEP), 5% glycerol, and 250 mM imidazole.
Surface plasmon resonance experiments were performed using a BIACORE T100 (GE Healthcare) on a CM5 series S sensor chip (GE Healthcare cat. #BR-1005-30). His-tagged β-cat (60 kDa, >90% pure based on SDS-PAGE) was immobilized using amine-coupling chemistry. The surfaces of flow cells one and two were activated with a 1:1 mixture of 0.1 M NHS (N-hydroxysuccinimide) and 0.1 M EDC (3-(N,N-dimethylamino) propyl-N-ethylcarbodiimide) at a flow rate of 5 μL/min. […]
(In general: SPR reads the build-up and loss of mass on a sensor chip optically.)

Another assay relates to STF cells. The experiment in a line: Viability (toxicity) of STF reporter cells, CCK-8. The class given is cell-based. As to conditions: Table 3; STF reporter cell line. Here is the method:
The Wnt STF reporter cells were seeded as 20,000 cells in 100 μL culture medium per well in 96-well plates (Corning cat. #3903, Falcon cat. #353072). The next day, 5-fold dilutions of the compounds in DMSO were added to the cells at a final concentration of 1% DMSO. The cells were also stimulated with 500 ng/mL recombinant human Wnt3A (RnD systems, cat. #5036-WN-010). After 24 hr incubation, the viability of the cells was determined with cell counting kit-8 (CCK-8, Dojindo cat. #CK04) cell viability reagent according to the manufacturer's protocol while the TOPFlash reporter activity was determined with Steady-Glo luciferase reagent.
as §2

The next assay concerns CRC1775. Kind of assay: Viability of primary patient-derived colorectal cancer cell line. The class given is cell-based.
Assay [3] concerns HCT116 cells. Kind of assay: Proliferation assay (CellTiter-Glo). The following applies: 10 μM daily. The format is cell-based. The method, then: HCT 116 cells were seeded as 3,000 cells in 100 μL growth medium per well in 96-well plates (Corning cat. #3903) and allowed to attached overnight. Cells were then treated continuously with compounds at a final concentration of 10 μM, 0.1% DMSO, for 4 days with daily medium change. Cell proliferation each day was determined using CellTiter-Glo luminescent cell viability assay (Promega cat. #G7573) according to the manufacturer's protocol.

Structures are written as SMILES.

T1 sequence (P35222 134-668): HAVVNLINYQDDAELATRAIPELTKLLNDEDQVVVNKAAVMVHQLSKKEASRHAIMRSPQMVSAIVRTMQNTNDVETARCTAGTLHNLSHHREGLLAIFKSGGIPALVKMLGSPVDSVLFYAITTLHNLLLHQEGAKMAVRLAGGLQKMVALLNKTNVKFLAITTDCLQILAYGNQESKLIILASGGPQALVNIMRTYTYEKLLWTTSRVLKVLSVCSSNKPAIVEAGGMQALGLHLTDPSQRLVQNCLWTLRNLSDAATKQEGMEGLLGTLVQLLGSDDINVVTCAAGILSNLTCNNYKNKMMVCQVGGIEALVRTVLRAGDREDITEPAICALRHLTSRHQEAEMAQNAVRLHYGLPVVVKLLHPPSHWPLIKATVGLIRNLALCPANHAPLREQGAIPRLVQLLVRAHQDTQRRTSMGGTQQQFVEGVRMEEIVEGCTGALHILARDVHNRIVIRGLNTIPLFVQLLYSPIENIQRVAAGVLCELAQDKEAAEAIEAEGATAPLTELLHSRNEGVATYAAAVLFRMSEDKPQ

With `CCc1ccc(OCc2nnc(SC3CCCC3=O)n2C(C)c2ccccc2)cc1` (centres unmarked) [GB1874], the EC50 amounted to 21 µM in the assay with CRC1837; 42 µM in the assay on CRC1414; 28 µM in the assay with DLD-1 cells; 45 µM in the assay on HCT116 cells [1]; 17 µM with CRC1846; 20 µM with CRC2367. Further, a half-maximal response in the assay with CRC1775 (EC50) required 74 µM. Also, the Kd in assay [2] (SPR steady state, n=3, 25° C., read-out: dissociation constant KD) amounted to 76 ± 13 µM. The “Hill slope of the best fit curve” value in assay [2] (SPR steady-state binding curve) is reported as “greater than 1”. The compound also registered an IC50 with STF cells of 66 µM. Moreover, the “growth of HCT116 cells” value with HCT116 cells [3] is “effectively inhibited the growth of HCT116 cells”.
